According to patent publication US7396830B2, “Piperazine amidines as antiviral agents” (priority 2005, dated 2008):

Test system: HIV-1
Experiment: Single-round infectious HIV-1 luciferase reporter virus infection of HeLa CD4 cells
Assay type: cell-based
Conditions: Human immunodeficiency virus 1, HeLa, 72 h, read-out: EC50 Group from Table 1
Procedure: • Virus production—Human embryonic Kidney cell line, 293T, was propagated in Dulbecco's Modified Eagle Medium (Invitrogen, Carlsbad, Calif.) containing 10% fetal Bovine serum (FBS, Sigma, St. Louis, Mo.). • Virus infection—Human epithelial cell line, HeLa, expressing the HIV-1 receptor CD4 was propagated in Dulbecco's Modified Eagle Medium (Invitrogen, Carlsbad, Calif.) containing 10% fetal Bovine serum (FBS, Sigma, St. Louis , Mo.) and supplemented with 0.2 mg/mL Geneticin (Invitrogen, Carlsbad, Calif.). Virus-Single-round infectious reporter virus was produced by co-transfecting human embryonic Kidney 293 cells with an HIV-1 envelope DNA expression vector and a proviral cDNA containing an envelope deletion mutation and the luciferase reporter gene inserted in place of HIV-1 nef sequences (Chen et al, Ref. 41). Transfections were performed using lipofectAMINE PLUS reagent as described by the manufacturer (Invitrogen, Carlsbad, Calif.). Experiment • 1. HeLa CD4 cells were plated in 96 well plates at a cell density of 1×10^4 cells per well in 100 μl Dulbecco's Modified Eagle Medium containing 10% fetal Bovine serum and incubated overnight. • 2. Compound was added in a 2 μl dimethylsulfoxide solution, so that the final assay concentration would be ≦10 μM. • 3. 100 μl of single-round infectious reporter virus in Dulbecco's Modified Eagle Medium was then added to the plated cells and compound at an approximate multiplicity of infection (MOI) of 0.01, resulting in a final volume of 200 μl per well. • 4. Virally-infected cells were incubated at 37 degrees Celsius, in a CO2 incubator, and harvested 72 h after infection. • 5. Viral infection was monitored by measuring luciferase expression from viral DNA in the infected cells using a luciferase reporter gene assay kit, as described by the manufacturer (Roche Molecular Biochemicals, Indianapolis, Ind.). Infected cell supernatants were removed and 50 μl of lysis buffer was added per well. After 15 minutes, 50 μl of freshly-reconstituted luciferase assay reagent was added per well. Luciferase activity was then quantified by measuring luminescence using a Wallac microbeta scintillation counter. • 6. The percent inhibition for each compound was calculated by quantifying the level of luciferase expression in cells infected in the presence of each compound as a percentage of that observed for cells infected in the absence of compound and subtracting such a determined value from 100. • 7. An EC50 provides a method for comparing the antiviral potency of the compounds of this disclosure. The effective concentration for fifty percent inhibition (EC50) was calculated with the Microsoft Excel Xlfit curve fitting software. For each compound, curves were generated from percent inhibition calculated at 10 different concentrations by using a four paramenter logistic model (model 205). Table 1 is the key for the data in Table 2. Results

COc1ccc(Br)c2[nH]cc(C(=O)C(=O)N3CCN(/C(=N/S(C)(=O)=O)c4ccccc4)CC3)c12 [AM-07]
EC50: < 0.5 µM
